Entries after “also recorded” stand apart in the source; their conditions may differ.
Experiments:
Npc1nmf164 mice [1] = experiment: Foamy macrophages in lungs of Npc1nmf164 mice (H&E); format: in vivo, mouse; settings: Npc1nmf164 mice at 100 days of age, weekly i.p.
Description: H&E stained micrographs showing foamy macrophages (indicated by black arrows) at 100 days of age in the lung of Npc1^+/nmf164 (healthy control) and Npc1^nmf164 (^Npc) mutant mice treated as indicated. Foamy macrophages were abundant in untreated Npc mice. […] Images were taken with 40× objective lens and are representative of 4 mice in each group. Number of mice in each group=4. For quantitation, 10-15 random fields were analyzed per lung section. Untr, Untreated.*p=0.02, TCF vs HPBCD, two-tailed Mann-Whitney test.
Drug injection and organ harvest—The Triple combination formulation (TCF) is a mixture of vorinostat (50 mg/kg), HPBCD (2000 mg/Kg)), PEG 400 (45%) and DMSO (5%). Vorinostat (50 mg/Kg) was made in 5% DMSO and 45% PEG. HPBCD was a 20% (w/v) solution and given dose of 2000 mg/Kg. Detailed methodology on preparing drug solutions have been descried earlier^10. To enable comparative studies with prior regiments, all mice were given two doses of HPBCD at P7 and P15. From P21 onwards, mice received either HPBCD alone or TCF, as indicated. Vo was also initiated at P21. […] For lung histopathology, Npc1^nmf164 mice were analyzed at 100-109 days of age. Long-term safety was assessed for 8-10 months either in Npc^1+/nmf164 or commercially purchased wild type Balb/c mice. […]

Npc1nmf164 mice [2] = experiment: Efficacy in Npc1nmf164 mouse model of Niemann-Pick type C disease; format: in vivo
Description: Animals—Npc1^nmf164 is a BALB/c strain carry a D1005G (A to G at cDNA bp 3163) mutation in the Npc1 gene 32. […] Homozygous mutants (Npc1^nmf164) along with wild-type littermates (Npc1^+/+), were generated in house by crossing heterozygous mutant (Npc1^+/nmf164) males and females and genotyped as previously described^10. Wild type Balb/c mice were procured from Envigo (Indianapolis, Ind., USA).
Drug injection and organ harvest—The Triple combination formulation (TCF) is a mixture of vorinostat (50 mg/kg), HPBCD (2000 mg/Kg)), PEG 400 (45%) and DMSO (5%). Vorinostat (50 mg/Kg) was made in 5% DMSO and 45% PEG. HPBCD was a 20% (w/v) solution and given dose of 2000 mg/Kg. […] To enable comparative studies with prior regiments, all mice were given two doses of HPBCD at P7 and P15. From P21 onwards, mice received either HPBCD alone or TCF, as indicated. Vo was also initiated at P21. Injections were administered weekly through the intraperitoneal (i.p) route (and the injection volume used was 10 ml/Kg body weight across all treatment groups). For lung histopathology, Npc1^nmf164 mice were analyzed at 100-109 days of age. Long-term safety was assessed for 8-10 months either in Npc^1+/nmf164 or commercially purchased wild type Balb/c mice.

[3] = literature, cited from earlier work
[4] = Quantification of Vo in lungs by mass spectrometry; format: in vivo, mouse; settings: Npc1+/nmf164 mice
Description: Npc1^+/nmf164 injected i.p. with Vo or TCF. At indicated times, animals sacrificed, perfused with PBS and Vo concentration in lungs were determined by mass spectrometry. n=5. h, hour. *p=0.02, TCF vs Vo 0.5 h, and **p=0.014 TCF vs Vo, 1 h, two tailed Student's t test.
Quantification of Vo in lungs—Npc1^+/nmf164 mice (age 6-7 weeks) were given intraperitoneal injections of either Vo (50 mg/Kg in 45% PEG and 5% DMSO) or TCF (Vo 50 mg/Kg+HPBCD, 2000 mg/Kg+PEG, 45%+DMSO, 5%). At 30 min and 1 h post injection, mice were asphyxiated with CO2, blood was drawn by cardiac puncture and organs were perfused with 20 ml ice-cold PBS through the ventricle. Harvested lungs were cut into small pieces (4-6 mm2) and flash frozen in liquid nitrogen. The quantification of vorinostat was done by Metabolite Profiling Facility, Bindley Bioscience Center, Purdue University, Ind., USA. The detailed methods are as described earlier^10. Briefly, the tissue was homogenized using a Precelly bead homogenizer system utilizing ceramic CK 14 beads. 2 ng of deuterated internal standard (d5-Vorinostat, Toronto Research Chemicals, Ontario, Canada) was added to lung homogenate prior to liquid extraction with acetonitrile. Prior to analysis, samples were reconstituted in 100 μL of 50% water/50% acetonitrile. An Agilent 1200 Rapid Resolution liquid chromatography (HPLC) system coupled to an Agilent 6460 series triple quadrupole mass spectrometer (MS/MS) was used to analyze vorinostat. The data were obtained in positive electrospray ionization (ESI) mode and quantitated by monitoring the following transitions: for Vorinostat, 265→232 with a collision energy of 5 V and for d5-Vorinostat, 270→237 with collision energy of 5 V.

inflammatory pain model = settings: intrathecal; cited from earlier work
SNI = settings: intrathecal injection; cited from earlier work
animal pain models = settings: systemically applied; cited from earlier work

## CC(O)COC[C@H]1O[C@@H]2O[C@H]3[C@H](O)[C@@H](O)[C@@H](O[C@H]4[C@H](O)[C@@H](O)[C@@H](O[C@H]5[C@H](O)[C@@H](O)[C@@H](O[C@H]6[C@H](O)[C@@H](O)[C@@H](O[C@H]7[C@H](O)[C@@H](O)[C@@H](O[C@H]8[C@H](O)[C@@H](O)[C@@H](O[C@H]1[C@H](O)[C@H]2O)O[C@@H]8COCC(C)O)O[C@@H]7COCC(C)O)O[C@@H]6COCC(C)O)O[C@@H]5COCC(C)O)O[C@@H]4COCC(C)O)O[C@@H]3COCC(C)O (stereo partly drawn) [HPBCD, 2-hydroxypropyl-β-cyclodextrin]
Npc1nmf164 mice [1]
  accumulation of foamy macrophages in the lungs: abundant macrophage accumulation; also recorded: no effect
Npc1nmf164 mice [2]; 2×HPBCD compared to 1×HPBCD alone
  benefit on Npc1nmf164 mouse survival: no additional benefit
[3]
  blood brain barrier crossing: does not cross the blood brain barrier
[3]; systemic delivery
  distribution to lung: excluded from lung

## O=C(CCCCCCC(=O)Nc1ccccc1)NO [Vo, vorinostat]
[4]; i.p.
  reduction of Vo lung concentration from 30 min to 60 min: 65-70%
[4]; mouse, lung, ip, 50 mg/Kg, 30 min post i.p. injection
  concentration at 30 min: 3200 ng/g
[4]; mouse, lung, ip, 50 mg/Kg, 60 min post i.p. injection
  concentration at 60 min: 1000 ng/g
Npc1nmf164 mice [1]
  accumulation of foamy macrophages in the lungs: abundant macrophage accumulation; also recorded: no effect
Npc1nmf164 mice [2]; Vo in PEG
  benefit on Npc1nmf164 mouse survival: no benefit
Inflammatory pain model
  histone acetylation in the spinal cord dorsal horn: enhanced histone acetylation
  hyperalgesia: reduced hyperalgesia

## O=C(O)[C@H]1O[C@@H](Oc2cc3oc(-c4ccccc4)cc(=O)c3c(O)c2O)[C@H](O)[C@@H](O)[C@@H]1O [baicalin]
SNI
  histone acetylation: reduces histone acetylation
  pain behavior: reverses pain behavior

## COc1cc(/C=C/C(=O)CC(=O)/C=C/c2ccc(O)c(OC)c2)ccc1O [curcumin]
Animal pain models
  analgesia: modest analgesia

## O=C(/C=C/c1ccc(CN(CCO)CCc2c[nH]c3ccccc23)cc1)NO [dacinostat]
Inflammatory pain model
  histone acetylation in the spinal cord dorsal horn: enhanced histone acetylation
  hyperalgesia: reduced hyperalgesia

## CC(/C=C/C(=O)NO)=C\[C@@H](C)C(=O)c1ccc(N(C)C)cc1 [trichostatin A]
Inflammatory pain model
  histone acetylation in the spinal cord dorsal horn: enhanced histone acetylation
  hyperalgesia: reduced hyperalgesia

## CCCC(CCC)C(=O)O [valproic acid]
Animal pain models
  analgesia: modest analgesia

From patent US11219608B2, “Triple combination formulation for treatment of chronic pain” (Northwestern University, priority 2017, dated 2022)
